Laboratory results taken from the supplement of paper PMC10307832.

Tests used:
Assay in all cases: relative viability (nuclei count vs DMSO), 5 days (fraction); higher = more cells survive
[1] = compound: C1CNCCC1C2=CC(=NN2)C3=CC=NC=C3 + CS(=O)(=O)N1CCN(Cc2cc3nc(-c4cccc5[nH]ncc45)nc(N4CCOCC4)c3s2)CC1 [Pictilisib] (partner 1 µM)
Outline: (§1)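 Values are medians from duplicate plates. Each reflects relative viability, defined as the nuclei count of treated wells over that of vehicle wells. Lung cancer cell lines in 1536-well plates were pin-tool dosed one day after seeding with one drug alone or with a fixed anchor-drug dose plus five library-drug doses (not always all listed) in √10 steps, then fixed, stained and imaged at 4× after 5 days.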

[2] = compound: C1CNCCC1C2=CC(=NN2)C3=CC=NC=C3 + Nc1ncn([C@H]2C[C@H](O)[C@@H](CO)O2)c(=O)n1 [Decitabine] (partner 2 µM)
Outline: as §1

[3] = compound: C[C@@H](N)c1ccc(C(=O)Nc2ccnc3[nH]ccc23)cc1 + CS(=O)(=O)N1CCN(Cc2cc3nc(-c4cccc5[nH]ncc45)nc(N4CCOCC4)c3s2)CC1 [Pictilisib] (partner 1 µM)
Outline: as §1

[4] = compound: O[C@H]1CC[C@H](Nc2ncc3nc(Nc4c(F)cc(F)cc4F)n([C@H]4CCOC4)c3n2)CC1 [Tanzisertib] + CS(=O)(=O)N1CCN(Cc2cc3nc(-c4cccc5[nH]ncc45)nc(N4CCOCC4)c3s2)CC1 [Pictilisib] (partner 1 µM)
Outline: as §1

## NCI-H2170
[1]; first compound 0.08 µM
  relative viability: 0.278
[1]; first compound 0.8 µM
  relative viability: 0.304
[1]; first compound 2.53 µM
  relative viability: 0.309
[1]; first compound 8 µM
  relative viability: 0.364
[2]; first compound 0.08 µM
  relative viability: 0.442
[2]; first compound 0.8 µM
  relative viability: 0.446
[2]; first compound 2.53 µM
  relative viability: 0.487
[2]; first compound 8 µM
  relative viability: 0.529
[3]; first compound 0.04 µM
  relative viability: 0.337
[3]; first compound 0.1265 µM
  relative viability: 0.319
[3]; first compound 0.4 µM
  relative viability: 0.295
[3]; first compound 1.265 µM
  relative viability: 0.204
[3]; first compound 4 µM
  relative viability: 0.266
[4]; first compound 0.08 µM
  relative viability: 0.357
[4]; first compound 0.253 µM
  relative viability: 0.307
[4]; first compound 0.8 µM
  relative viability: 0.313
[4]; first compound 2.53 µM
  relative viability: 0.307
[4]; first compound 8 µM
  relative viability: 0.27

## HCC-366
[1]; first compound 0.08 µM
  relative viability: 0.162
[1]; first compound 0.8 µM
  relative viability: 0.127
[1]; first compound 2.53 µM
  relative viability: 0.11
[1]; first compound 8 µM
  relative viability: 0.182
[2]; first compound 0.08 µM
  relative viability: 0.266
[2]; first compound 0.8 µM
  relative viability: 0.353
[2]; first compound 2.53 µM
  relative viability: 0.373
[2]; first compound 8 µM
  relative viability: 0.366
[3]; first compound 0.04 µM
  relative viability: 0.113
[3]; first compound 0.1265 µM
  relative viability: 0.137
[3]; first compound 0.4 µM
  relative viability: 0.163
[3]; first compound 1.265 µM
  relative viability: 0.132
[3]; first compound 4 µM
  relative viability: 0.0875
[4]; first compound 0.08 µM
  relative viability: 0.138
[4]; first compound 0.253 µM
  relative viability: 0.15
[4]; first compound 0.8 µM
  relative viability: 0.134
[4]; first compound 2.53 µM
  relative viability: 0.128
[4]; first compound 8 µM
  relative viability: 0.114

## NCI-H2347
[1]; first compound 0.08 µM
  relative viability: 0.661
[1]; first compound 0.8 µM
  relative viability: 0.672
[1]; first compound 2.53 µM
  relative viability: 0.651
[1]; first compound 8 µM
  relative viability: 0.494
[2]; first compound 0.08 µM
  relative viability: 0.63
[2]; first compound 0.8 µM
  relative viability: 0.621
[2]; first compound 2.53 µM
  relative viability: 0.658
[2]; first compound 8 µM
  relative viability: 0.567
[3]; first compound 0.04 µM
  relative viability: 0.472
[3]; first compound 0.1265 µM
  relative viability: 0.667
[3]; first compound 0.4 µM
  relative viability: 0.727
[3]; first compound 1.265 µM
  relative viability: 0.832
[3]; first compound 4 µM
  relative viability: 0.796
[4]; first compound 0.08 µM
  relative viability: 0.781
[4]; first compound 0.253 µM
  relative viability: 0.444
[4]; first compound 0.8 µM
  relative viability: 0.501
[4]; first compound 2.53 µM
  relative viability: 0.478
[4]; first compound 8 µM
  relative viability: 0.715

## COR-L 105
[1]; first compound 0.08 µM
  relative viability: 0.421
[1]; first compound 0.8 µM
  relative viability: 0.429
[1]; first compound 2.53 µM
  relative viability: 0.398
[1]; first compound 8 µM
  relative viability: 0.396
[2]; first compound 0.08 µM
  relative viability: 0.568
[2]; first compound 0.8 µM
  relative viability: 0.729
[2]; first compound 2.53 µM
  relative viability: 0.687
[2]; first compound 8 µM
  relative viability: 0.772
[3]; first compound 0.04 µM
  relative viability: 0.435
[3]; first compound 0.1265 µM
  relative viability: 0.297
[3]; first compound 0.4 µM
  relative viability: 0.399
[3]; first compound 1.265 µM
  relative viability: 0.255
[3]; first compound 4 µM
  relative viability: 0.309
[4]; first compound 0.08 µM
  relative viability: 0.428
[4]; first compound 0.253 µM
  relative viability: 0.387
[4]; first compound 0.8 µM
  relative viability: 0.404
[4]; first compound 2.53 µM
  relative viability: 0.442
[4]; first compound 8 µM
  relative viability: 0.263

## 201T
[1]; first compound 0.08 µM
  relative viability: 0.724
[1]; first compound 0.8 µM
  relative viability: 0.664
[1]; first compound 2.53 µM
  relative viability: 0.7
[1]; first compound 8 µM
  relative viability: 0.681
[2]; first compound 0.08 µM
  relative viability: 0.835
[2]; first compound 0.8 µM
  relative viability: 0.857
[2]; first compound 2.53 µM
  relative viability: 0.846
[2]; first compound 8 µM
  relative viability: 0.866
[3]; first compound 0.04 µM
  relative viability: 0.702
[3]; first compound 0.1265 µM
  relative viability: 0.636
[3]; first compound 0.4 µM
  relative viability: 0.685
[3]; first compound 1.265 µM
  relative viability: 0.519
[3]; first compound 4 µM
  relative viability: 0.788
[4]; first compound 0.08 µM
  relative viability: 0.748
[4]; first compound 0.253 µM
  relative viability: 0.676
[4]; first compound 0.8 µM
  relative viability: 0.684
[4]; first compound 2.53 µM
  relative viability: 0.687
[4]; first compound 8 µM
  relative viability: 0.649

## NCI-H2126
[1]; first compound 0.08 µM
  relative viability: 0.521
[1]; first compound 0.8 µM
  relative viability: 0.492
[1]; first compound 2.53 µM
  relative viability: 0.55
[1]; first compound 8 µM
  relative viability: 0.539
[2]; first compound 0.08 µM
  relative viability: 0.613
[2]; first compound 0.8 µM
  relative viability: 0.654
[2]; first compound 2.53 µM
  relative viability: 0.667
[2]; first compound 8 µM
  relative viability: 0.578
[3]; first compound 0.04 µM
  relative viability: 0.632
[3]; first compound 0.1265 µM
  relative viability: 0.494
[3]; first compound 0.4 µM
  relative viability: 0.55
[3]; first compound 1.265 µM
  relative viability: 0.349
[3]; first compound 4 µM
  relative viability: 0.6
[4]; first compound 0.08 µM
  relative viability: 0.522
[4]; first compound 0.253 µM
  relative viability: 0.464
[4]; first compound 0.8 µM
  relative viability: 0.503
[4]; first compound 2.53 µM
  relative viability: 0.494
[4]; first compound 8 µM
  relative viability: 0.52

## LC-2-ad
[1]; first compound 0.08 µM
  relative viability: 0.43
[1]; first compound 0.8 µM
  relative viability: 0.469
[1]; first compound 2.53 µM
  relative viability: 0.625
[1]; first compound 8 µM
  relative viability: 0.48
[2]; first compound 0.08 µM
  relative viability: 0.682
[2]; first compound 0.8 µM
  relative viability: 0.791
[2]; first compound 2.53 µM
  relative viability: 0.868
[2]; first compound 8 µM
  relative viability: 0.789
[3]; first compound 0.04 µM
  relative viability: 0.641
[3]; first compound 0.1265 µM
  relative viability: 0.43
[3]; first compound 0.4 µM
  relative viability: 0.696
[3]; first compound 1.265 µM
  relative viability: 0.592
[3]; first compound 4 µM
  relative viability: 0.372
[4]; first compound 0.08 µM
  relative viability: 0.506
[4]; first compound 0.253 µM
  relative viability: 0.426
[4]; first compound 0.8 µM
  relative viability: 0.458
[4]; first compound 2.53 µM
  relative viability: 0.0954
[4]; first compound 8 µM
  relative viability: 0.359

## NCI-H2085
[1]; first compound 0.08 µM
  relative viability: 0.406
[1]; first compound 2.53 µM
  relative viability: 0.448
[1]; first compound 8 µM
  relative viability: 0.546
[2]; first compound 0.08 µM
  relative viability: 0.526
[2]; first compound 2.53 µM
  relative viability: 0.578
[2]; first compound 8 µM
  relative viability: 0.531
[3]; first compound 0.04 µM
  relative viability: 0.6
[3]; first compound 0.1265 µM
  relative viability: 0.63
[3]; first compound 0.4 µM
  relative viability: 0.581
[3]; first compound 1.265 µM
  relative viability: 0.704
[3]; first compound 4 µM
  relative viability: 0.606
[4]; first compound 0.08 µM
  relative viability: 0.474
[4]; first compound 0.253 µM
  relative viability: 0.454
[4]; first compound 0.8 µM
  relative viability: 0.465
[4]; first compound 2.53 µM
  relative viability: 0.478
[4]; first compound 8 µM
  relative viability: 0.435

## NCI-H358
[1]; first compound 0.08 µM
  relative viability: 0.323
[1]; first compound 0.8 µM
  relative viability: 0.376
[1]; first compound 2.53 µM
  relative viability: 0.357
[1]; first compound 8 µM
  relative viability: 0.422
[2]; first compound 0.08 µM
  relative viability: 0.224
[2]; first compound 0.8 µM
  relative viability: 0.226
[2]; first compound 2.53 µM
  relative viability: 0.21
[2]; first compound 8 µM
  relative viability: 0.217
[3]; first compound 0.04 µM
  relative viability: 0.339
[3]; first compound 0.1265 µM
  relative viability: 0.31
[3]; first compound 0.4 µM
  relative viability: 0.33
[3]; first compound 1.265 µM
  relative viability: 0.289
[3]; first compound 4 µM
  relative viability: 0.326
[4]; first compound 0.08 µM
  relative viability: 0.393
[4]; first compound 0.253 µM
  relative viability: 0.389
[4]; first compound 0.8 µM
  relative viability: 0.331
[4]; first compound 2.53 µM
  relative viability: 0.293
[4]; first compound 8 µM
  relative viability: 0.332
